Consider 27 molecules from patent publication US20260335453A1, “ISOINDOLINONE-GLUTARIMIDE ANTIBODY CONJUGATES, AND USES THEREOF” (FIREFLY BIO, INC., priority 2023, published 2026).

What is called Dmax is the largest share of the target that was removed. Broadly, the IC50 is the concentration that gives 50% inhibition. As a reminder, the DC50 is the midpoint of the concentration-degradation curve. A high value points to degradation only at high concentration.

Some results are limits rather than exact numbers.

The test system of test [1] is CAL51 cells. The test can be described thus: Degradation assay evaluated by immunofluorescence staining, CAL51. Format: cell-based, human. Conditions: for Dmax / DC50: Homo sapiens, CAL-51, CAL51, 6 h; for Dmax (%) CAL51: CAL51, 6 h. As to the method:
One day prior to treatment with compounds, black 96 well plates were coated with fibronectin (0.2 μg/ml in PBS) for 45 min at room temperature and subsequently washed with PBS. CAL-51 or SKBR3 cells were seeded at 30K cells/well (1001) and incubated overnight at 37° C. whereafter compounds were added reaching indicated concentrations. 6 h after treatment the medium was removed, cells were washed with PBS and fixed with 10% formalin for 20 mins at room temperature. Following two PBS washes (150 μl), cells were permeabilized in 0.1% Triton X-100 in PBS for 8 mins at room temperature and subsequently washed again twice with PBS. Cells were blocked thereafter with 1% BSA in PBS for 45 mins. Primary antibody was diluted in blocking buffer and incubated with the cells overnight at 4° C. After three washes with PBS, cells were incubated with secondary antibody for 1 h at RT, washed and subsequently images were taken on an Operetta High-Content Imager.
For the determination of the DC50, a custom algorithm implemented in the PerkinElmer image analysis software Harmony-Acapella® was used.

Test [2] has as its system CAL51 cells. The test can be described thus: Cell proliferation (Cell Titer Glow), CAL51. The following applies: Homo sapiens, CAL-51; IG compounds, cell killing, 72 h. The test is classed as cell-based. On the procedure: Exemplary isoindolinone-glutarimide (IG) compounds of Table 1a, 1b and 1c were prepared and characterized according to the Examples herein. Certain exemplary IG compounds of(Table 1a were tested for their effects in inhibiting cellular proliferation, including CAL1 WSU-DLCL2, NCI-N87 and SKBR3. CAL51 is a human breast adenocarcinoma cell line with triple-negative status for expression of estrogen, progesterone and HER2 receptors. WSU-DLCL2 is a human B-Cell non-Hodgkin lymphoma cell line that expresses high levels of CD22. NCI-N87 is a human epithelial cell line established from a gastric carcinoma; SKBR3 is a human epithelial cell line established from a breast adenocarcinoma; both NCI-N87 and SKBR3 cell lines express high levels of HER2 receptor. […]
One day prior to treatment with compounds or IGAC, cells were plated in white 96-well plates (SKBR: 3000 cells/well; CAL-51: 4000 cells/well). Compounds or ADCs were added in a serial-dilution manner reaching the indicated concentrations. Plates were incubated at 37 degrees for 96h (ADCs) or 72h (compounds) whereafter a 1:10 dilution of Cell Titer Glow was used to measure relative cell numbers after 10 min of incubation at room temperature.

`CNCCOCCc1ccc(NC(=O)OCc2ccc3c(c2)CN(C2CCC(=O)NC2=O)C3=O)cc1Cl` (centres unmarked) [IG-4] came in with a Dmax in test [1] of 17.3 ± 0.107%. In test [2], the IC50 is over 10 µM. In test [1], `CNCCOCCc1ccc(NC(=O)NCc2ccc3c(c2)CN(C2CCC(=O)NC2=O)C3=O)cc1C(C)C` (centres unmarked) [IG-5] came in with a DC50 of 1410 nM and a Dmax of 64.6 ± 2.56%. The molecule further returned an IC50 in test [2] of 6.86 µM. The matching figures for `CNCCOCCc1ccc(NC(=O)NCc2ccc3c(c2)CN(C2CCC(=O)NC2=O)C3=O)cc1SC` (centres unmarked) [IG-6, 1-((2-(2,6-dioxopiperidin-3-yl)-1-oxoisoindolin-5-yl)methyl)-3-(4-(2-(2-(methylamino)ethoxy)ethyl)-3-(methylthio)phenyl)urea]: 834 ± 125 nM, 73.3 ± 9.98% and 7.51 µM.

For the molecule `O=C1CCC(N2C(=O)c3ccc(NS(=O)(=O)c4ccccc4OC(F)(F)F)cc3C2=O)C(=O)N1` (centres unmarked) [IG-9, N-(2-(2,6-dioxopiperidin-3-yl)-1,3-dioxoisoindolin-5-yl)-2-(trifluoromethoxy)benzenesulfonamide], in test [1], the DC50 was 157 ± 46.5 nM and the Dmax turned out to be 83.8 ± 5.5%. 6.49 µM corresponded to half-maximal inhibition in test [2] (IC50). Molecule `Cc1ccc(NC(=O)CCc2ccc3c(c2)CN(C2CCC(=O)NC2=O)C3=O)cc1O` (centres unmarked) [IG-10, 3-(2-(2,6-dioxopiperidin-3-yl)-1-oxoisoindolin-5-yl)-N-(3-hydroxy-4-methylphenyl)propanamide] displayed a Dmax in test [1] of 25.1 ± 3.27%. The half-inhibitory concentration (IC50) in test [2] is over 10 µM.

As for `O=C1CCC(N2Cc3cc(NS(=O)(=O)c4ccccc4OC(F)(F)F)ccc3C2=O)C(=O)N1` (centres unmarked) [IG-11, N-(2-(2,6-dioxopiperidin-3-yl)-1-oxoisoindolin-5-yl)-2-(trifluoromethoxy) benzenesulfonamide], in test [1], the Dmax was 42 ± 9.54%. This molecule also displayed an IC50 in test [2] of over 10 µM.

In test [1], `Cc1ccc(NC(=O)OCc2ccc3c(c2)CN(C2CCC(=O)NC2=O)C3=O)cc1O` (centres unmarked) [IG-13, (2-(2,6-dioxopiperidin-3-yl)-1-oxoisoindolin-5-yl)methyl (3-hydroxy-4-methylphenyl)carbamate] registered a Dmax of 38.8 ± 1.98%. In test [2], this molecule yielded a 50% inhibitory concentration (IC50) of 3.04 µM.

Molecule `CNCCOCCc1ccc(NC(=O)NCc2ccc3c(c2)CN(C2CCC(=O)NC2=O)C3=O)cc1O` (centres unmarked) [IG-14, 1-((2-(2,6-dioxopiperidin-3-yl)-1-oxoisoindolin-5-yl)methyl)-3-(3-hydroxy-4-(2-(2-(methylamino)ethoxy)ethyl)phenyl)urea] returned a Dmax in test [1] of 22.7 ± 3.34%. Besides, the IC50 in test [2] is over 10 µM. In test [1], `Cc1ccc(NC(=O)NCc2ccc3c(c2)C(=O)N(C2CCC(=O)NC2=O)C3)cc1Cl` (centres unmarked) [IG-16, 1-(3-chloro-4-methylphenyl)-3-((2-(2,6-dioxopiperidin-3-yl)-3-oxoisoindolin-5-yl)methyl)urea] yielded a DC50 of 174 ± 106 nM and a Dmax of 91.7 ± 5.22%. 0.444 µM corresponded to half-maximal inhibition in test [2] (IC50). As to `O=C1CCC(N2Cc3c(Nc4ccnc(Cc5ccc6c(c5)CCC6)n4)cccc3C2=O)C(=O)N1` (centres unmarked) [IG-19, 3-(4-((2-((2,3-dihydro-1H-inden-5-yl)methyl)pyrimidin-4-yl)amino)-1-oxoisoindolin-2-yl)piperidine-2,6-dione], the “Dmax (%) CAL51” value in test [1] is recorded as “Not active”. The same molecule yielded an IC50 in test [2] of over 10 µM. In the case of `CNCCOCCc1ccc(NC(=O)NCc2ccc3c(c2)C(=O)N(C2CCC(=O)NC2=O)C3)cc1Cl` (centres unmarked) [IG-20, 1-(3-chloro-4-(2-(2-(methylamino)ethoxy)ethyl)phenyl)-3-((2-(2,6-dioxopiperidin-3-yl)-3-oxoisoindolin-5-yl)methyl)urea], the “Dmax (%) CAL51” value in test [1] is listed as “Not active”. Besides, in test [2], the IC50 is over 10 µM.

The molecule `Cc1ccc(NC(=O)NCc2cc(O)c3c(c2)CN(C2CCC(=O)NC2=O)C3=O)cc1Cl` (centres unmarked) [IG-24, 1-(3-chloro-4-methylphenyl)-3-((2-(2,6-dioxopiperidin-3-yl)-7-hydroxy-1-oxoisoindolin-5-yl)methyl)urea] had an IC50 in test [2] of 0.412 µM. In test [1], `CC(C)(C)c1cccc(NC(=O)NCc2ccc3c(c2O)CN(C2CCC(=O)NC2=O)C3=O)c1` (centres unmarked) [IG-25, 1-(3-(tert-butyl)phenyl)-3-((2-(2,6-dioxopiperidin-3-yl)-4-hydroxy-1-oxoisoindolin-5-y1)methyl)urea] had a DC50 of 28.9 nM and a Dmax of 89.6%. In test [2], this molecule returned an IC50 of 0.0432 µM.

`Cc1ccc(NC(=O)NCc2ccc3c(c2O)CN(C2CCC(=O)NC2=O)C3=O)cc1O` (centres unmarked) [IG-27, 1-((2-(2,6-dioxopiperidin-3-yl)-4-hydroxy-1-oxoisoindolin-5-yl)methyl)-3-(3-hydroxy-4-methylphenyl)urea] displayed an IC50 in test [2] of over 10 µM. Still for that read-out and setting: with `Nc1ccc2c(c1OS(=O)(=O)c1ccccc1OC(F)(F)F)C(=O)N(C1CCC(=O)NC1=O)C2=O` (centres unmarked) [IG-29, 5-amino-2-(2,6-dioxopiperidin-3-yl)-1,3-dioxoisoindolin-4-yl 2-(trifluoromethoxy)benzenesulfonate] the figure was over 10 µM; with `Nc1ccc(OS(=O)(=O)c2ccccc2OC(F)(F)F)c2c1C(=O)N(C1CCC(=O)NC1=O)C2=O` (centres unmarked) [IG-30, 7-amino-2-(2,6-dioxopiperidin-3-yl)-1,3-dioxoisoindolin-4-yl 2-(trifluoromethoxy)benzenesulfonate], over 10 µM; with `O=C1CCC(N2Cc3cc(CNC(=O)Nc4ccc(CCOCCN5CCOCC5)c(O)c4)ccc3C2=O)C(=O)N1` (centres unmarked) [IG-32, 1-((2-(2,6-dioxopiperidin-3-yl)-1-oxoisoindolin-5-yl)methyl)-3-(3-hydroxy-4-(2-(2-morpholinoethoxy)ethyl)phenyl)urea], over 10 µM. `Cc1ccc(NC(=O)OCc2ccc3c(c2O)CN(C2CCC(=O)NC2=O)C3=O)cc1Cl` (centres unmarked) [IG-33, (2-(2,6-dioxopiperidin-3-yl)-4-hydroxy-1-oxoisoindolin-5-yl)methyl (3-chloro-4-methylphenyl)carbamate] had a half-maximal inhibitory concentration (IC50) in test [2] of over 10 µM. Regarding `O=C1CCC(N2C(=O)c3cc(NS(=O)(=O)c4ccccc4OC(F)(F)F)cc(O)c3C2=O)C(=O)N1` (centres unmarked) [IG-34, N-(2-(2,6-dioxopiperidin-3-yl)-7-hydroxy-1,3-dioxoisoindolin-5-yl)-2-(trifluoromethoxy)benzenesulfonamide], the IC50 in test [2] was over 10 µM.

`Cc1ccc(NC(=O)NCc2ccc3nnn(C4CCC(=O)NC4=O)c(=O)c3c2)cc1O` (centres unmarked) [IG-35, 1-((3-(2,6-dioxopiperidin-3-yl)-4-oxo-3,4-dihydrobenzo[d][1,2,3]triazin-6-yl)methyl)-3-(3-hydroxy-4-methylphenyl)urea] had an IC50 in test [2] of over 10 µM.

Regarding `O=C1CCC(N2Cc3c(ccc(CNC(=O)Nc4cccc(S(F)(F)(F)(F)F)c4)c3O)C2=O)C(=O)N1` (centres unmarked) [IG-43, 1-((2-(2,6-dioxopiperidin-3-yl)-4-hydroxy-1-oxoisoindolin-5-yl)methyl)-3-(3-(pentafluoro-l6-sulfaneyl)phenyl)urea], in test [2], it took 0.472 µM to reach half-maximal inhibition (IC50). That is a sub-micromolar value. The same measure, in the same setting: with `O=C1CCC(N2Cc3c(Nc4ccnc(Nc5ccc6c(c5)CCC6)n4)ccc(O)c3C2=O)C(=O)N1` (centres unmarked) [IG-44, 3-(4-((2-((2,3-dihydro-1H-inden-5-yl)amino)pyrimidin-4-yl)amino)-7-hydroxy-1-oxoisoindolin-2-yl)piperidine-2,6-dione] the figure was over 10 µM.

`CNc1cc2c(cc1CNC(=O)Nc1ccc(C)c(Cl)c1)CN(C1CCC(=O)NC1=O)C2=O` (centres unmarked) [IG-45, 1-(3-chloro-4-methylphenyl)-3-((2-(2,6-dioxopiperidin-3-yl)-6-(methylamino)-1-oxoisoindolin-5-yl)methyl)urea] yielded an IC50 in test [2] of over 10 µM. On the same count and under the same terms, the same measure for `O=C1CCC(N2C(=O)c3cc(O)c(NS(=O)(=O)c4ccccc4OC(F)(F)F)cc3C2=O)C(=O)N1` (centres unmarked) [IG-46, N-(2-(2,6-dioxopiperidin-3-yl)-6-hydroxy-1,3-dioxoisoindolin-5-yl)-2-(trifluoromethoxy)benzenesulfonamide]: over 10 µM.

`O=C1CCC(N2Cc3c(ccc(CNC(=O)Nc4ccc(Br)c(Br)c4)c3O)C2=O)C(=O)N1` (centres unmarked) [IG-47, 1-(3,4-dibromophenyl)-3-((2-(2,6-dioxopiperidin-3-yl)-4-hydroxy-1-oxoisoindolin-5-yl)methyl)urea] gave a 50% inhibitory concentration (IC50) in test [2] of 1.08 µM. The same measure, in the same setting: with `CC(C)(C)c1ccc(NC(=O)NCc2ccc3c(c2O)CN(C2CCC(=O)NC2=O)C3=O)cc1Cl` (centres unmarked) [IG-48, 1-(4-(tert-butyl)-3-chlorophenyl)-3-((2-(2,6-dioxopiperidin-3-yl)-4-hydroxy-1-oxoisoindolin-5-yl)methyl)urea] the figure was 0.05 µM; with `CNCCOCCc1ccc(NC(=O)NCc2ccc3c(c2O)CN(C2CCC(=O)NC2=O)C3=O)cc1Cl` (centres unmarked) [IG-53, 1-(3-chloro-4-(2-(2-(methylamino)ethoxy)ethyl)phenyl)-3-((2-(2,6-dioxopiperidin-3-yl)-4-hydroxy-1-oxoisoindolin-5-yl)methyl)urea], over 30 µM.
